Columns and labels:
[1] = tested on: human coronary artery smooth muscle cells; assay: Human coronary artery smooth muscle cell proliferation (WST-1); assay type: cell-based; conditions: growth factor media; Compound 3 50 nM, 500 nM, 5 μM added 1 h before U46619; 48 h; WST-1
Method: Human coronary artery SMC is cultured in SmGM2 kit medium. At 80% confluence, the SMCs are trypsinized and resuspended in either DMEM supplemented with 2% FCS (“low serum media”), or in SmGM2 kit medium containing 5% FCS, 2 ng/ml FGF, 0.5 ng/ml EGF, 5 μg/ml insulin (“growth factor media”). Subsequently, 5000 cells in 200 μL are added to each well in a 96-well plate and left to adhere overnight. Either vehicle or Compound 3 (50 nM, 500 nM, 5 μM) is added to the wells 1 h before U 46619 at different concentrations (0.1 nM to 10 μM) and incubated for another 48 h. All experiments are repeated 3-5 times for each experimental condition.
Cell proliferation is evaluated using WST-1 reagent according to the manufacturer's instructions. In brief, after replacement of phenol red containing media by 200 μL transparent serum-supplemented DMEM, 10 μL of diluted WST-1 reagent is added to each well at the end of the 48 h incubation period. After 1 h incubation at 37° C., the absorbance of the formazan dye formed is measured at 440 nm using a microplate reader.
All results are expressed as mean±SE. Statistically significant differences are determined by a one-way analysis of variances, followed by Holm-Sidak post hoc test, for multiple comparisons, using Sigma Stat software. A P value of less than 0.05 is considered significant.

[2] = tested on: 6-keto PGF1α secretion by HUVEC; assay: 6-keto PGF1α EIA, secretion by HUVEC; assay type: cell-based, human; conditions: HUVEC 6 h
Method: 6-ketoPGF1α secretion is evaluated using a specific EIA assay. Results are expressed in picograms of 6-ketoPGF1α reported to micrograms of proteins measured by the Folin method on cell lysates. Data are means±S.D. (n=3). Statistical analysis: one way ANOVA followed by Bonferroni, Versus CTL, * p<0.05.
HUVEC are seeded at 25,000 cells/well on gelatin-coated 24-well plate (Corning) in EGM. After 48 h, cell medium is replaced by EBM containing or not containing Compound 3 at different concentrations. After 1 h of preincubation, 1 ng/ml TNFα is added or is not added to the wells. 6 h after adding TNFα, medium of each well is collected and cell lysis is performed in NaOH 0.5 N for 30 min. PTX3 secretion in the incubation medium is assayed using specific ELISAs (#DPTX30, Quantikine, R&D Systems, USA) according to the procedure provided by the supplier. 6-ketoPGF1α levels in cell culture media are determined using a competitive assay (#515211, Cayman, USA). Results are expressed in picograms of PTX3 or 6-ketoPGF1α reported to micrograms of proteins measured by the Folin method (Folin-Ciocalteu's phenol reagent, Merck, Germany) in cell lysates.

[3] = molecular target: T1, TP receptor (Homo sapiens, UniProt P21731); conditions: 0.125 to 2.5 mg/kg; cited from earlier work
T1 sequence (P21731 1-343): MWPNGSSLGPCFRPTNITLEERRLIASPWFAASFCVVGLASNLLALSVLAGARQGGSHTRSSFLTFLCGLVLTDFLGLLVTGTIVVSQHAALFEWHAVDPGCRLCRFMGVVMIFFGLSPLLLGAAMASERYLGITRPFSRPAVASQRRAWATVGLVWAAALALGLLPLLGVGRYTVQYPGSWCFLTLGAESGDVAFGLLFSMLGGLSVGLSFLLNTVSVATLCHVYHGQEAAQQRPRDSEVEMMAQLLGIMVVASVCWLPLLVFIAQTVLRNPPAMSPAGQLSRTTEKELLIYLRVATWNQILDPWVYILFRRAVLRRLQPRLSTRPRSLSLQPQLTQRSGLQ

CC(C)(C)N.O=C(O)CC/C=C\C[C@@H]1CO[C@H](c2ccccc2Cl)O[C@@H]1c1ccccc1O [Compound 3, tert-butylammonium (Z)-6-((2S,4S,5R)-2-(2-chlorophenyl)-4-(2-hydroxyphenyl)-1,3-dioxan-5-yl)hex-4-enoate]
SMC proliferation induced by U46619 [1]: significantly and concentration-dependently inhibits | 6-keto PGF1α secretion ([2]; 600 nM Compound 3 together with 1 ng/ml TNFα): significant increase | 6-keto PGF1α secretion ([2]; Compound 3 alone, without TNFα): do not increase | TP receptor activation in vivo [3]: antagonize TP receptor activation in vivo

Source: patent US20160193179A1, “Treatment of Cardiovascular Risk in Diabetic Patients” (EVOLVA SA, priority 2012, published 2016)
